According to patent publication US4581354A, “3-arylcarbonyl- and 3-cycloalkylcarbonyl-1-aminoalkyl-1H-indoles, compositions and use” (Sterling Drug Inc., priority 1985, dated 1986):
Like-named read-outs stand apart in the source and are kept apart here.

System: acetylcholine-induced abdominal constriction
Assay: animal or person
Type: in vivo, mice
Conditions: Mus musculus; for ED50: read-out: Ach ED50; for inhibition in vivo at 100 mg/kg: 100 mg./kg. oral
Source text: The test procedures used to determine the analgesic activities of the compounds have been described in detail in the prior art and are as follows: The acetylcholine-induced abdominal constriction test, which is a primary analgesic screening test designed to measure the ability of a test agent to suppress acetylcholine-induced abdominal constriction in mice, described by Collier et al., Brit. J. Pharmacol. Chemotherap. 32, 295 (1968); a modification of the anti-bradykinin test, which is also a primary analgesic screening procedure, described by Berkowitz et al., J. Pharmacol. Exptl. Therap. 177, 500-508 (1971), Blane et al., J. Pharm. Pharmacol. 19, 367-373 (1967), Botha et al., Eur. J. Pharmacol. 6, 312-321 (1969) and Deffenu et al., J. Pharm. Pharmacol. 18, 135 (1966); and the rat paw flexion test, described by Kuzuna et al., Chem. Pharm. Bull., 23, 1184-1191 (1975), Winter et al., J. Pharm. Exptl. Therap., 211, 678-685 (1979) and Capetola et al., J. Pharm. Exptl. Therap. 214, 16-23 (1980).
Unless noted otherwise, all data were obtained on oral administration and are expressed either as the ED50 or as the percent inhibition at a given dose level (thus 30/100 or 30% inhibition at […].)
In some instances, the compounds were retested two or more times, and ED50 values were calculated for each series of repeat tests. In such instances, each of the ED50 values so-obtained is given in a series of values, thus 6, 28, 30, 43 in the case of the species of Example 1AW in the acetylcholine-induced abdominal constriction test.

[1] = po, read-out: Ach percent inhibition

In the case of `COc1ccc(C(=O)c2c(C)n(CCCCN3CCCCC3)c3ccccc23)cc1` [Example 3AB], the ED50 (po) is reported as 25 mg/kg.
Work on `COc1ccc(C(=O)c2c(C)n(CCCCN3CCCC3)c3ccccc23)cc1` [Example 3AC] yielded an ED50 (po) of 21 mg/kg.
`CCN(CC)CCCCn1c(C)c(C(=O)c2ccc(OC)cc2)c2ccccc21` [Example 3AD] showed an inhibition in vivo at 100 mg/kg [1] of 100%.
Molecule `COc1ccc(C(=O)c2c(C)n(CCCN3CCSCC3)c3ccc(F)cc23)cc1.Cl` [Example 3AF, 5-fluoro-2-methyl-3-(4-methoxybenzoyl)-1-[3-(4-thiomorpholinyl)propyl]-1H-indole hydrochloride] has an ED50 (po) of 139 mg/kg.
For `CCNCCCn1c(C)c(C(=O)c2ccc(OC)cc2)c2cc(F)ccc21` [Example 3AG], the ED50 (po) was 42 mg/kg.
In the case of `COc1ccc(C(=O)c2c(C)n(CCCN3CCS(=O)(=O)CC3)c3ccc(F)cc23)cc1` [Example 3AH], the inhibition in vivo at 100 mg/kg [1] is reported as 30%.
With `COc1ccc(C(=O)c2c(C)n(CCCN(C)CCO)c3ccc(F)cc23)cc1` [Example 3AJ] the ED50 (po) was 35 mg/kg.
Molecule `COc1ccc(C(=O)c2c(C)n(CCN3CCN(C)CC3)c3ccccc23)cc1` [Example 3C] has an ED50 (po) of 53 mg/kg.
With `Cc1c(C(=O)c2cccc3ccccc23)c2ccccc2n1CCN1CCCC(O)C1` (centres unmarked) [Example 3H] the ED50 (iv) was 9.7 mg/kg.
Work on `Cc1c(C(=O)c2cccc3ccccc23)c2ccccc2n1CCN1CCNCC1` [Example 3I] yielded an inhibition in vivo at 100 mg/kg [1] of 30%.
Work on `Cc1c(C(=O)c2cccc3ccccc23)c2ccccc2n1CCN1CCN(C)CC1` [Example 3J] yielded an inhibition in vivo at 10 mg/kg (iv, 10 mg./kg. i.v., read-out: Ach percent inhibition) of 30%.
Molecule `CCNCCn1c(C)c(C(=O)c2ccc(OC)cc2)c2ccccc21` [Example 3K] has an ED50 (po) of 45.7 mg/kg.
With `COCCNCCn1c(C)c(C(=O)c2ccc(OC)cc2)c2ccccc21` [Example 3L] the ED50 (po) was 44 mg/kg.
`Cc1c(C(=O)c2cccc3ccccc23)c2ccccc2n1CCN1CCOC(C)C1` (centres unmarked) [Example 3M] was tested, and the inhibition in vivo at 100 mg/kg [1] was 10%.
`COc1ccc(C(=O)c2c(C)n(CCN3CCCC(NC(C)=O)C3)c3ccccc23)cc1` (centres unmarked) [Example 3N, 1-[2-(3-acetylamino-1-piperidinyl)ethyl]-2-methyl-3-(4-methoxybenzoyl)-1H-indole] was tested, and the inhibition in vivo at 100 mg/kg [1] was 40%.
Work on `COc1ccc(C(=O)c2c(C)n(CCN3CCOC(C)C3)c3ccccc23)cc1` (centres unmarked) [Example 3P] yielded an ED50 (po) of 71 mg/kg.
Work on `COc1ccc(C(=O)c2c(C)n(CCN3CCCCC3CC3CCCCC3)c3ccccc23)cc1` (centres unmarked) [Example 3Q] yielded an inhibition in vivo at 100 mg/kg [1] of 40%.
For `COc1ccc(C(=O)c2c(C)n(CCN3CC(C)OC(C)C3)c3ccccc23)cc1` (centres unmarked) [Example 3R], the inhibition in vivo at 100 mg/kg [1] was 40%.
In the case of `COc1ccc(C(=O)c2c(C)n(CCN3CCN(C=O)CC3)c3ccccc23)cc1` [Example 3S, 1-[2-(4-formyl-1-piperazinyl)ethyl]-2-methyl-3-(4-methoxybenzoyl)-1H-indole], the inhibition in vivo at 100 mg/kg [1] is reported as 40%.
With `COc1ccc(C(=O)c2c(C)n(CCN3CCCNCC3)c3ccccc23)cc1` [Example 3T] the ED50 (po) was 53 mg/kg.
Work on `COc1ccc(C(=O)c2c(C)n(CCN3CCSCC3)c3ccccc23)cc1` [Example 3U, 2-methyl-3-(4-methoxybenzoyl)-1-[2-(4-thiomorpholinyl)ethyl]-1H-indole] yielded an inhibition in vivo at 100 mg/kg [1] of 30%.
In the case of `COc1ccc(C(=O)c2c(C)n(CCN3CCS(=O)(=O)CC3)c3ccccc23)cc1` [Example 3V], the ED50 (po) is reported as 254 mg/kg.
In the case of `COc1ccc(C(=O)c2c(C)n(CCCN3CCCC(O)C3)c3ccc(F)cc23)cc1` (centres unmarked) [Example 3W], the ED50 (po) is reported as 49 mg/kg.
`COc1ccc(C(=O)c2c(C)n(CCCN3CCOC(C)C3)c3ccc(F)cc23)cc1` (centres unmarked) [Example 3Y] was tested, and the ED50 (po) was 69 mg/kg.
`COc1ccc2c(C(=O)c3ccc(N)cc3)c(C)n(CCN3CCOCC3)c2c1` [Example 4C, 2-methyl-3-(4-aminobenzoyl)-6-methoxy-1-[2-(4-morpholinyl)ethyl]-1H-indole] showed an ED50 (po) of 37 mg/kg.
`Cc1c(C(=O)c2ccc(N)cc2)c2ccccc2n1C(C)CN1CCOCC1` (centres unmarked) [Example 4D, 2-methyl-3-(4-aminobenzoyl)-1-[1-methyl-2-(4-morpholinyl)ethyl]-1H-indole] showed an ED50 (po) of 24 mg/kg.
